Test results taken from patent US12427155B2, “Treatment for tau-related diseases” (The Regents of the University of California, priority 2019, dated 2025).
“Also recorded” adds a separate entry of the source. Where two headings read alike, the source gives them in different places. Where a SMILES comes first, the peptide text is derived from it. The star is where a group is joined. Cbz = O=C(OCc1ccccc1)*

Columns and labels:
pThr231Tau/tTau [1] = test: pThr231Tau/tTau ratio (ELISA) in APP^dp iPSC-derived FAD neurons; format: cell-based, human; settings: for abrogation of the atorvastatin-induced decrease in pThr231Tau/tTau ratio: 3 days; for pThr231Tau/tTau, dosage effect: dose range
APP^dp1-6 neurons [2] = test: lipid analysis of APP^dp1-6 neurons; format: cell-based, human; settings: 3 days
Tau (PHF-1) = test: PHF-1 (Tau) staining of 4RTau-tg mouse brain sections; format: in vivo; settings: 4R Tau-tg mice, 25 mg/kg daily oral gavage, 3 months
Protocol: FIGS. 7A-7D show PHF-1 staining of 4RTau-tg mouse sections. […] (FIG. 7A) Representative sections stained for PHF-1. Low power images show areas of enlargements where measurements were obtained. (FIGS. 7B-7D) Sections were analyzed with video bright field microscopy and immunoreactivity was quantified as corrected optical density. * indicated p<0.05 compared to vehicle treated 4RTau-tg mice, ** indicates p<0.005 compared to vehicle treated 4RTau-tg mice. Scale bar=200 μm in low power images and 20 μm in higher power images.
Following treatment, mice were sacrificed, brains removed and sectioned along the sagittal axis with half flash frozen and half drop fixed in 4% PFA. Fixed brains were sectioned with a vibratome (40 μm) and stained for GFAP, PHF1 (Tau) or Synaptophysin. Sections were imaged with a Leica microscope with a digital camera and analyzed with ImageJ for optical density (GFAP, Synaptophysin) or % area of neuropil (PHF1). Statistics were conducted with Prism6 using ANOVA one way analysis with Tukey-Kramer post hoc analysis.

pThr231Tau/tTau [3] = test: pThr231Tau/tTau in non-demented control (NDC) neurons; settings: NDC neurons with two copies of APP
APP^dp1-6 neurons [4] = test: cell viability of APP^dp1-6 iPSC-derived neurons; settings: dose range
iPSC-derived astrocytes = tested on: iPSC-derived astrocytes
Excerpt: Scale bar, 10 μm. […] Astrocytic viability (blue line) was plotted against results from FIGS. 1D and S1A for statins (neuronal viability and pThr231Tau/Tau ratio).

Aβ42 secretion = test: secreted Aβ42 in APP-Δcholesterol neurons; format: cell-based, human; settings: APP E693A and F691A+E693A neurons, 10 μM, 3 days
Excerpt: FIGS. 4A-4F show regulation of Aβ by CE Is Mediated by a Cholesterol Binding Domain in APP. […] Green indicates amino acid sequence. Red arrow indicates CRISPR/Cas9 cut site. […] Two E693A (line 3D9 and 2B2) and one F691A+E693A line (line D12) were generated, as well as two non-gene-edited, but clonally expanded, WT lines (B10 and B11). FIGS. 4D-4F show measurements made using APP-Δcholesterol neurons with the following genotypes: WT (average from 2 independent lines), E693A (2 independent lines), and F691A+E693A (1 line) (mean±SEM, n R 3 per line). (D) Relative secreted Ab42 levels in conditioned media from purified CD184^−, CD44^−, and CD24^+ neurons (mean±SEM, n≥3 per line).

pTau = test: immunofluorescence of pTau epitopes in APP^dp1-6 neurons; format: cell-based, human; settings: 10 μM, 5 days
Excerpt: Vehicle alone controls (DMSO) are shown in black. […] SER, selective estrogen […] (n=4). […] NF—H, neurofilament H, axonal marker. The pThr231Tau antibody used is TG3, which detects a conformational epitope of pThr231Tau. Scale bar, 100 μm.

[5] = lower concentrations that sufficed to alter brain cholesterol metabolism; Mast et al., 2017b; cited from earlier work
[6] = human, in vivo; cited from earlier work
APP^dp1-6 neurons [7] = tested on: APP^dp1-6 neurons
[8] = APP^dp1-6 neurons, 10 μM (FIG. 2C)
[9] = 0.5 mM single dose at t=0, with atorvastatin 10 μM, 5 days

CC(C)C(O)CC[C@@H](C)[C@H]1CC[C@H]2[C@@H]3CC=C4C[C@@H](O)CC[C@]4(C)[C@H]3CC[C@]12C (some centres unmarked) [24-hydroxycholesterol]
pThr231Tau/tTau (pThr231Tau/tTau [1]; [8]): reduced

Clc1ccccc1CNCC1CCC(CNCc2ccccc2Cl)CC1 (centres unmarked) [AY-9944]
7DHC levels (APP^dp1-6 neurons [2]; 5 μM): increased
24-hydroxycholesterol in media (APP^dp1-6 neurons [2]; 5 μM): decreased
desmosterol levels (APP^dp1-6 neurons [2]; 5 μM): reduced
free cholesterol levels (APP^dp1-6 neurons [2]; 5 μM): reduced
pThr231Tau/tTau (pThr231Tau/tTau [1]; [8]): did significantly decrease; also recorded: minor effect

COc1ccc2cc3[n+](cc2c1OC)CCc1cc2c(cc1-3)OCO2 [Berberine]
Tau accumulation in the CA1 region of the hippocampus (Tau (PHF-1)): no change

COC(=O)[C@H](CC(C)C)NC(=O)c1ccc(NC[C@@H](N)CS)cc1-c1cccc2ccccc12 [GGTI-298]
pThr231Tau/tTau (pThr231Tau/tTau [1]; [8]): did not significantly reduce

Cc1cc(SCc2sc(-c3ccc(C(F)(F)F)cc3)nc2C)ccc1OCC(=O)O [GW50156]
pThr231Tau/tTau (pThr231Tau/tTau [1]; [8]): did not decrease

CSc1cc(C)nc(SC)c1NC(=O)CN1CCN(CCSc2nc3ccccc3[nH]2)CC1 [K604]
pThr231Tau/tTau (pThr231Tau/tTau [3]): reduced
pThr231Tau/tTau (pThr231Tau/tTau [1]; APP^dp1-6 neurons, 25 μM, 5-day treatment (FIG. 2G)): reduced

CC(C)C[C@@H](C=O)NC(=O)[C@H](CC(C)C)NC(=O)[C@H](CC(C)C)NC(=O)OCc1ccccc1 [MG132] (Cbz-Leu-Leu-Leu-aldehyde)
abrogation of the atorvastatin-induced decrease in pThr231Tau/tTau ratio (pThr231Tau/tTau [1]; 5 μM co-treated with atorvastatin 10 μM): abrogated the decrease

C[C@@](O)(CCOP(=O)(O)OP(=O)(O)O)CC(=O)O [MVA-5PP, mevalonate-5-pyrophosphate]
rescue of the effect of atorvastatin on pThr231Tau/tTau (pThr231Tau/tTau [1]): rescued

C[C@@](O)(CCOP(=O)(O)O)CC(=O)O [MVP, mevalonate-5-phosphate]
rescue of the effect of atorvastatin on pThr231Tau/tTau (pThr231Tau/tTau [1]; [9]): rescued

O=S(=O)(c1ccccc1)N(CC(F)(F)F)c1ccc(C(O)(C(F)(F)F)C(F)(F)F)cc1 [T091317]
24-hydroxycholesterol in media (APP^dp1-6 neurons [2]; 10 μM): unaltered
desmosterol levels (APP^dp1-6 neurons [2]; 10 μM): decreased
pThr231Tau/tTau (pThr231Tau/tTau [1]; [8]): reduced

F/C(COc1ccc2c(c1)[nH]c1ccccc12)=C1/CN2CCC1CC2 [YM-53601]
pThr231Tau/tTau (pThr231Tau/tTau [1]; APP^dp1-6 neurons, 20 μM (FIG. 2C)): did significantly decrease

CC(C)c1c(C(=O)Nc2ccccc2)c(-c2ccccc2)c(-c2ccc(F)cc2)n1CC[C@@H](O)C[C@@H](O)CC(=O)O [atorvastatin]
cell viability or neuronal number (APP^dp1-6 neurons [4]): slightly cytotoxic at higher concentrations
pThr231Tau/tTau (pThr231Tau/tTau [3]): reduced
7DHC levels (APP^dp1-6 neurons [2]; 10 μM): trended towards decreased
24-hydroxycholesterol in media (APP^dp1-6 neurons [2]; 10 μM): unaltered
desmosterol levels (APP^dp1-6 neurons [2]; 10 μM): reduced
astrocyte viability (iPSC-derived astrocytes): induced major astrocyte cell-death
Aβ42 secretion (Aβ42 secretion): did not affect
pS202/T205Tau by immunofluorescence (pTau): reduced
pS396/S404Tau by immunofluorescence (pTau): reduced
pThr231 phosphorylation-dependent conformational Tau epitope (TG3) by immunofluorescence (pTau): reduced
pThr231Tau/Tau after removal of compound (pThr231Tau/tTau [1]; removal after five days of treatment): recovery

CC(C)c1cc(C(C)C)c(CC(=O)NS(=O)(=O)Oc2c(C(C)C)cccc2C(C)C)c(C(C)C)c1 [avasimibe]
pThr231Tau/tTau (pThr231Tau/tTau [3]): reduced
pThr231Tau/tTau (pThr231Tau/tTau [1]; APP^dp1-6 neurons, 10 μM, 5-day treatment (FIG. 2G)): reduced

O=C1Nc2ccc(Cl)cc2[C@@](C#CC2CC2)(C(F)(F)F)O1 [efavirenz, (S)-6-chloro-(cyclopropylethynyl)-1,4-dihydro-4-(trifluoromethyl)-2H-3,1-benzoxazin-2-one]
adverse effects in mice [5]: Major adverse effects were not observed
adverse effects in HIV patients [6]: significant adverse effects that include neurotoxicity
astrocyte viability (iPSC-derived astrocytes): did not affect astrocyte viability even at high doses

CC[C@H](C)C(=O)O[C@H]1C[C@@H](C)C=C2C=C[C@H](C)[C@H](CC[C@@H]3C[C@@H](O)CC(=O)O3)[C@H]21 [lovastatin]
cell viability or neuronal number (APP^dp1-6 neurons [4]): minor effects
pThr231Tau/tTau, dosage effect (pThr231Tau/tTau [1]; APP^dp1-6 neurons): reduced pThr231Tau/tTau in a dose-dependent manner

CC[C@H](C)C(=O)O[C@H]1CCC=C2C=C[C@H](C)[C@H](CC[C@@H]3C[C@@H](O)CC(=O)O3)[C@H]21 [mevastatin]
cell viability or neuronal number (APP^dp1-6 neurons [7]): minor effects
pThr231Tau/tTau, dosage effect (pThr231Tau/tTau [1]; APP^dp1-6 neurons): reduced pThr231Tau/tTau in a dose-dependent manner

C=C1[C@@H](O)[C@@H]2O[C@]3(CC[C@H](/C=C/[C@@H](C)[C@@H]4CC(C)=C[C@@]5(O[C@H](C[C@@](C)(O)C(=O)O)CC[C@H]5O)O4)O3)CC[C@H]2O[C@@H]1[C@@H](O)C[C@H](C)[C@H]1O[C@@]2(CCCCO2)CC[C@H]1C [okadaic acid]
abrogation of the atorvastatin-induced decrease in pThr231Tau/tTau ratio (pThr231Tau/tTau [1]; 1.25 nM co-treated with atorvastatin 10 μM): Only proteasomal inhibition abrogated the decrease

CC(C)c1nc(N(C)S(C)(=O)=O)nc(-c2ccc(F)cc2)c1/C=C/[C@@H](O)C[C@@H](O)CC(=O)O [rosuvastatin]
pThr231Tau/tTau, confirmed non-toxic screening hit (pThr231Tau/tTau [1]; APP^dp1-6 neurons, 5 μM, 5 days): hit-list

mevalonate [MVA]
rescue of the effect of atorvastatin on pThr231Tau/tTau (pThr231Tau/tTau [1]; [9]): rescued
